Test systems include UO-31 renal; COLO 205 colon; HCC-2998 colon; RPMI-8226 leukemia; SW-620 colon; MDA-N; SK-MEL-28 melanoma; 786-0 renal; HCT-15 colon; HS 578T breast; SN12C renal; SK-OV-3 ovarian; LOX IMVI melanoma; SF-295 CNS; DU-145 prostate; OVCAR-5 ovarian; UACC-62 melanoma; A498 renal; KM12 colon; SNB-19 CNS.
Common to all, as to assay: inhibition of tumour cell growth, NCI panel, 48 h

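Assay format: 96-well plates, 48-hour exposure. TGI: concentration producing complete growth inhibition.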 Bounds are passed on as bounds.

Consider `Cc1cn(C2CC(O)C(Cn3nncc3Cn3cnc4c(N)ncnc43)O2)c(=O)[nH]c1=O` (stereo not given), for which the TGI in the test with UO-31 renal, in the test on COLO 205 colon, in the test on HCC-2998 colon, in the test with RPMI-8226 leukemia, in the test on SW-620 colon and in the test with MDA-N was more than 100 µM each time. Further, the TGI in the test on SK-MEL-28 melanoma, in the test with 786-0 renal, with HCT-15 colon, in the test on HS 578T breast, with SN12C renal and in the test with SK-OV-3 ovarian was more than 100 µM each time. In addition, the TGI with LOX IMVI melanoma, in the test with SF-295 CNS, in the test on DU-145 prostate, in the test with OVCAR-5 ovarian, with UACC-62 melanoma and with A498 renal was more than 100 µM throughout. The TGI with KM12 colon and in the test on SNB-19 CNS was more than 100 µM throughout.
With `Nc1ncnc2c1ccn2CC#CCO`, the TGI in the test with UO-31 renal, with COLO 205 colon, in the test with HCC-2998 colon, in the test on RPMI-8226 leukemia, in the test on SW-620 colon and in the test on MDA-N was more than 100 µM in each case. In addition, the TGI in the test with SK-MEL-28 melanoma, in the test on 786-0 renal, with HCT-15 colon, with HS 578T breast, with SN12C renal and in the test on SK-OV-3 ovarian was more than 100 µM in each case. Also, the TGI in the test with LOX IMVI melanoma, in the test on SF-295 CNS, with DU-145 prostate, in the test with OVCAR-5 ovarian, in the test with UACC-62 melanoma and with A498 renal was more than 100 µM in each case. In addition, the TGI with KM12 colon and in the test on SNB-19 CNS was more than 100 µM each time.
As to `C=CC(C)(C)NC(C(=O)N1CCC[C@H]1c1nc(-c2nc(C(=O)OCC=C(C)C)c(C)o2)c(C)o1)C(C)C` (stereo not given in full), the TGI with UO-31 renal is more than 65.1 µM; in the test on COLO 205 colon, more than 100 µM; with HCC-2998 colon, more than 100 µM; with RPMI-8226 leukemia, more than 100 µM; with SW-620 colon, more than 100 µM; in the test with MDA-N, 56.2 µM. Also, the TGI in the test with SK-MEL-28 melanoma was more than 100 µM; with 786-0 renal, more than 100 µM; with HCT-15 colon, more than 95.5 µM; in the test with HS 578T breast it was more than 100 µM; in the test on SN12C renal, more than 72.2 µM; in the test with SK-OV-3 ovarian it was more than 100 µM. In addition, the TGI in the test on LOX IMVI melanoma is more than 74.5 µM; with SF-295 CNS it was more than 74.8 µM; in the test with DU-145 prostate, more than 100 µM; in the test on OVCAR-5 ovarian, more than 100 µM; in the test on UACC-62 melanoma, more than 60.9 µM; in the test with A498 renal it was more than 100 µM. Moreover, the TGI in the test on KM12 colon was more than 90.6 µM; in the test on SNB-19 CNS, more than 100 µM.
On to `COc1ccc(COCC[C@H](C)OC2OC(CO[Si](C)(C)C(C)(C)C)C(O)C(O)C2O)cc1` (stereo not given in full), for which the TGI in the test on UO-31 renal, in the test with COLO 205 colon, in the test on HCC-2998 colon, with RPMI-8226 leukemia, with SW-620 colon and in the test with MDA-N was more than 100 µM throughout. In addition, the TGI in the test on SK-MEL-28 melanoma, in the test on 786-0 renal, in the test on HCT-15 colon, in the test on HS 578T breast, in the test on SN12C renal and in the test with SK-OV-3 ovarian was more than 100 µM throughout. Also, the TGI with LOX IMVI melanoma, in the test on SF-295 CNS, with DU-145 prostate, with OVCAR-5 ovarian, with UACC-62 melanoma and in the test with A498 renal was more than 100 µM throughout. For the same compound, the TGI in the test on KM12 colon and with SNB-19 CNS was more than 100 µM throughout.
Consider `CNC(=O)O/N=C1\N(C)CN(c2ccccc2)C12CCN(CCCC(=O)c1ccc(F)cc1)CC2`, for which the TGI was more than 100 µM with UO-31 renal; 33.2 µM in the test on COLO 205 colon; more than 100 µM in the test with HCC-2998 colon; more than 100 µM in the test with RPMI-8226 leukemia; more than 100 µM in the test on SW-620 colon; more than 100 µM with MDA-N. Moreover, the TGI with SK-MEL-28 melanoma, in the test on 786-0 renal, with HCT-15 colon, in the test on HS 578T breast, with SN12C renal and in the test with SK-OV-3 ovarian was more than 100 µM each time. Also, the TGI in the test on LOX IMVI melanoma, in the test with SF-295 CNS, with DU-145 prostate, with OVCAR-5 ovarian, in the test on UACC-62 melanoma and in the test on A498 renal was more than 100 µM throughout. The TGI was 81.7 µM with KM12 colon and more than 100 µM in the test with SNB-19 CNS.
For the compound `CC1(C=O)CC(CCc2ccccc2)NC1Cc1ccc(O)cc1` (stereo not given), the TGI in the test on UO-31 renal came to 28.4 µM; in the test with COLO 205 colon, 23.3 µM; in the test on HCC-2998 colon, 24.9 µM; with RPMI-8226 leukemia it was 40.7 µM; in the test on SW-620 colon, 62.3 µM; with MDA-N, 32.1 µM. Also, the TGI in the test on SK-MEL-28 melanoma turned out to be 54 µM; with 786-0 renal it was 29.2 µM; in the test on HCT-15 colon, 43.3 µM; with HS 578T breast it was 41.9 µM; in the test on SN12C renal it was 31.6 µM; in the test with SK-OV-3 ovarian it was 33.4 µM. Also, the TGI in the test on LOX IMVI melanoma is 35 µM; with SF-295 CNS, 33.8 µM; in the test on DU-145 prostate it was 33.4 µM; in the test with OVCAR-5 ovarian, 31.5 µM; with UACC-62 melanoma, 30.3 µM; with A498 renal it was 27.9 µM. Further, the figures for the TGI in the test on KM12 colon and in the test with SNB-19 CNS were 37.5 µM and 28.1 µM, respectively.
On to `COC1(OC)CCN(Cc2ccccc2)C1=O`, for which the TGI in the test on UO-31 renal was determined as 22.8 µM; in the test on COLO 205 colon it was 12.5 µM; in the test with HCC-2998 colon, 34 µM; in the test with RPMI-8226 leukemia it was 42.8 µM; in the test with SW-620 colon, 7.28 µM; in the test with MDA-N, 22.6 µM. Moreover, the TGI with SK-MEL-28 melanoma was 23.3 µM; in the test with 786-0 renal, 15.7 µM; in the test with HCT-15 colon, 38.6 µM; in the test with HS 578T breast, more than 100 µM; in the test with SN12C renal it was 22.1 µM; in the test on SK-OV-3 ovarian, more than 100 µM. Besides, the TGI stood at 16.6 µM with LOX IMVI melanoma; 53.9 µM in the test with SF-295 CNS; 29.2 µM with DU-145 prostate; 31.8 µM in the test with OVCAR-5 ovarian; 26.1 µM in the test on UACC-62 melanoma; 44 µM in the test on A498 renal. Moreover, the TGI in the test on KM12 colon turned out to be 32.2 µM; in the test on SNB-19 CNS it was 34.9 µM.

(Values after PubChem BioAssay (NCI).)
